Data taken from PMC13221243, “Crosstalk Between Lysine Lactylation and Acetylation Regulates Lactate Dehydrogenase in Streptococcus mutans” (Genomics, Proteomics & Bioinformatics, 2025).

Tests used:
ActA [1] = molecular target: T1, ActA (Streptococcus mutans, UniProt Q8DVT1); experiment: in vitro acylation of LDH, anti-Kac Western blot; assay type: biochemical; conditions: acyl acceptor recombinant LDH; pH 7.5, 10 mM MgCl2, 37°C, 3 h
T1 construct: gene SMU_386; recombinant His-tagged from pET28a, E. coli BL21(DE3), nickel purified
T1 sequence (Q8DVT1 1-144): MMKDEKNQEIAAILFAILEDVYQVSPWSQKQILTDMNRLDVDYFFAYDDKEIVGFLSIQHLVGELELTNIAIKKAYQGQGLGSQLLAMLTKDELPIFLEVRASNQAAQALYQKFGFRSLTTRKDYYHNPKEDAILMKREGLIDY

ActA [2] = molecular target: T1, ActA; experiment: in vitro acylation of LDH, anti-Kla Western blot; assay type: biochemical; conditions: acyl acceptor recombinant LDH; pH 7.5, 10 mM MgCl2, 37°C, 3 h

Structure (SMILES) | in vitro acylation of LDH, anti-Kac Western blot (ActA [1]) | in vitro acylation of LDH, anti-Kla Western blot (ActA [2])
CC(=O)SCCNC(=O)CCNC(=O)[C@H](O)C(C)(C)COP(=O)(O)OP(=O)(O)OC[C@H]1O[C@@H](n2cnc3c(N)ncnc32)[C@H](O)[C@@H]1OP(=O)(O)O [Ac-CoA] | However, ActA significantly increased the levels of Kla and Kac in LDH enzymatically. | –
CC(O)C(=O)SCCNC(=O)CCNC(=O)[C@H](O)C(C)(C)COP(=O)(O)OP(=O)(O)OC[C@H]1O[C@@H](n2cnc3c(N)ncnc32)[C@H](O)[C@@H]1OP(=O)(O)O (some centres unmarked) [La-CoA] | – | However, ActA significantly increased the levels of Kla and Kac in LDH enzymatically.
